Target: T1, human PDE5 (Homo sapiens, UniProt O76074)
T1 construct: from tissue; host or cells: platelets from fresh blood of human donors (lysate, 10,000 g supernatant)
Assay: Inhibition of the type 5 phosphodiesterase (PDE5) activity, modified SPA test with platelet lysate
Format: biochemical
Conditions: PDE5 from human platelet lysate, 0.5 μM cGMP
How it was run: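 SPA-based cGMP hydrolysis, [3H]cGMP tracer in 0.5 μM cGMP, by sonicated human platelet lysate; motapizone (1 μM) and a PDE2 inhibitor (10 nM) block other PDEs. Reaction 15 min at 37 °C after 5 min preincubation, quenched with beads containing IBMX. IC50 from concentration-effect curves.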

Compound	IC50 [pM]	-log IC50 (mol/l)
O=C(N[C@H]1CC[C@@H](NC(=O)C2(O)CC2)CC1)c1c[nH]c2c(-c3ccc(F)cc3OCC3CC3)ncnc12 [Example 216, cis-4-(2-Cyclopropylmethoxy-4-fluoro-phenyl)-5H-pyrrolo[3,2-d]pyrimidine-7-carboxylic acid {4-[(1-hydroxy-cyclopropanecarbonyl)-amino]-cyclohexyl}-amide]	1510	–
O=CN1CC[C@H](NC(=O)c2c[nH]c3c(-c4c(OCC5CC5)ccc5c4OCO5)ncnc23)C1 [Example 18, 4-(5-Cyclopropylmethoxy-benzo[1,3]dioxol-4-yl)-5H-pyrrolo[3,2-d]pyrimidine-7-carboxylic acid ((S)-1-formyl-pyrrolidin-3-yl)-amide]	1820	–
COc1cc(OCC2CC2)c(-c2ncnc3c(C(=O)N[C@@H]4CCN(C(C)=O)C4)c[nH]c23)cc1F [Example 117, 4-(2-Cyclopropylmethoxy-5-fluoro-4-methoxy-phenyl)-5H-pyrrolo[3,2-d]pyrimidine-7-carboxylic acid ((R)-1-acetyl-pyrrolidin-3-yl)-amide]	1100	–
CCCCOc1ccc2c(c1-c1ncnc3c(C(=O)NC4CCN(C(=O)[C@H](C)O)CC4)c[nH]c13)OCO2 [Example 253, 4-(5-Butoxy-benzo[1,3]dioxol-4-yl)-5H-pyrrolo[3,2-d]pyrimidine-7-carboxylic acid [1-((S)-2-hydroxy-propionyl)-piperidin-4-yl]-amide]	170	–
CC(=O)N[C@H]1CC[C@H](NC(=O)c2c[nH]c3c(-c4cc(F)ccc4OCC4CC4)ncnc23)CC1 [Example 87, trans-4-(2-Cyclopropylmethoxy-5-fluoro-phenyl)-5H-pyrrolo[3,2-d]pyrimidine-7-carboxylic acid (4-acetylamino-cyclohexyl)-amide]	1120	–
COc1cc(OCC2CC2)c(-c2ncnc3c(C(=O)N[C@H]4CC[C@H](NC(=O)[C@H](C)O)CC4)c[nH]c23)cc1F [Example 234, trans-4-(2-Cyclopropylmethoxy-5-fluoro-4-methoxy-phenyl)-5H-pyrrolo[3,2-d]pyrimidine-7-carboxylic acid [4-((S)-2-hydroxy-propionylamino)-cyclohexyl]-amide]	977	–
COCCNC(=O)[C@H]1CC[C@H](NC(=O)c2c[nH]c3c(-c4cc(F)ccc4OCC4CC4)ncnc23)CC1 [Example 274, trans-4-(2-Cyclopropylmethoxy-5-fluoro-phenyl)-5H-pyrrolo[3,2-d]pyrimidine-7-carboxylic acid [4-(2-methoxy-ethylcarbamoyl)-cyclohexyl]-amide]	5250	–
COCC(=O)N[C@H]1CC[C@H](NC(=O)c2c[nH]c3c(-c4cc(C)ccc4OCC4CC4)ncnc23)CC1 [Example 121, trans-4-(2-Cyclopropylmethoxy-5-methyl-phenyl)-5H-pyrrolo[3,2-d]pyrimidine-7-carboxylic acid [4-(2-methoxy-acetylamino)-cyclohexyl]-amide]	1780	–
COc1ccc(OCC2CC2)c(-c2ncnc3c(C(=O)N[C@H]4CC[C@H](NC(C)=O)CC4)c[nH]c23)c1 [Example 63, trans-4-(2-Cyclopropylmethoxy-5-methoxy-phenyl)-5H-pyrrolo[3,2-d]pyrimidine-7-carboxylic acid (4-acetylamino-cyclohexyl)-amide]	912	–
CCCCOc1ccc2c(c1-c1ncnc3c(C(=O)NC4CCN(C(=O)CC)CC4)c[nH]c13)OCO2 [Example 144, 4-(5-Butoxy-benzo[1,3]dioxol-4-yl)-5H-pyrrolo[3,2-d]pyrimidine-7-carboxylic acid (1-propionyl-piperidin-4-yl)-amide]	115	–
COCC(=O)N1CCC[C@H](NC(=O)c2c[nH]c3c(-c4c(OCC5CC5)ccc5c4OCO5)ncnc23)C1 [Example 45, 4-(5-Cyclopropylmethoxy-benzo[1,3]dioxol-4-yl)-5H-pyrrolo[3,2-d]pyrimidine-7-carboxylic acid [(S)-1-(2-methoxy-ethanoyl)-piperidin-3-yl]amide]	1550	–
COCCOc1ccc2c(c1-c1ncnc3c(C(=O)N[C@H]4CC[C@H](NC(=O)CO)CC4)c[nH]c13)OCO2 [Example 260, trans-4-[5-(2-Methoxy-ethoxy)-benzo[1,3]dioxol-4-yl]-5H-pyrrolo[3,2-d]pyrimidine-7-carboxylic acid [4-(2-hydroxy-acetylamino)-cyclohexyl]-amide]	4790	–
COc1ccc(OCC2CC2)c(-c2ncnc3c(C(=O)N[C@H]4CC[C@@H](NC(C)=O)CC4)c[nH]c23)c1 [Example 67, cis-4-(2-Cyclopropylmethoxy-5-methoxy-phenyl)-5H-pyrrolo[3,2-d]pyrimidine-7-carboxylic acid (4-acetylamino-cyclohexyl)-amide]	1380	–
CC(=O)N1CCC(NC(=O)c2c[nH]c3c(-c4ccc(F)cc4OCC4CC4)ncnc23)CC1 [Example 81, 4-(2-Cyclopropylmethoxy-4-fluoro-phenyl)-5H-pyrrolo[3,2-d]pyrimidine-7-carboxylic acid (1-acetyl-piperidin-4-yl)-amide]	1480	–
CCOC(=O)N[C@H]1CC[C@H](NC(=O)c2c[nH]c3c(-c4ccccc4OCC4CC4)ncnc23)CC1 [Example 92, trans-(4-{[4-(2-Cyclopropylmethoxy-phenyl)-5H-pyrrolo[3,2-d]pyrimidine-7-carbonyl]-amino}-cyclohexyl)-carbamic acid ethyl ester]	3390	–
CCCCOc1ccc2c(c1-c1ncnc3c(C(=O)NC4CCCN(C(=O)OCC)C4)c[nH]c13)OCO2 (centres unmarked) [Example 148, 3-{[4-(5-Butoxy-benzo[1,3]dioxol-4-yl)-5H-pyrrolo[3,2-d]pyrimidine-7-carbonyl]-amino}-piperidine-1-carboxylic acid ethyl ester]	407	–
4-(2-Cyclopropylmethoxy-4-fluoro-5-methoxy-phenyl)-5H-pyrrolo[3,2-d]pyrimidine-7-carboxylic acid ((R)-1-acetyl-pyrrolidin-3-yl)-amide [Example 103]	–	9.33
COCC(=O)N1CC[C@H](NC(=O)c2c[nH]c3c(-c4c(OCC5CC5)ccc5c4OCO5)ncnc23)C1 [Example 21, 4-(5-Cyclopropylmethoxy-benzo[1,3]dioxol-4-yl)-5H-pyrrolo[3,2-d]pyrimidine-7-carboxylic acid [(S)-1-(2-methoxy-ethanoyl)-pyrrolidin-3-yl]amide]	1820	–

Further compounds by falling IC50, results first:

IC50 [pM]	Compound	-log IC50 (mol/l)
759	COc1cc(OCC2CC2)c(-c2ncnc3c(C(=O)N[C@H]4CC[C@H](NC(=O)CO)CC4)c[nH]c23)cc1F [Example 233, trans-4-(2-Cyclopropylmethoxy-5-fluoro-4-methoxy-phenyl)-5H-pyrrolo[3,2-d]pyrimidine-7-carboxylic acid [4-(2-hydroxy-acetylamino)-cyclohexyl]-amide]	–
661	COc1cc(OCC2CC2)c(-c2ncnc3c(C(=O)NC4CCN(C(C)=O)CC4)c[nH]c23)cc1F [Example 108, 4-(2-Cyclopropylmethoxy-5-fluoro-4-methoxy-phenyl)-5H-pyrrolo[3,2-d]pyrimidine-7-carboxylic acid (1-acetyl-piperidin-4-yl)-amide]	–
631	CCOc1ccc2c(c1-c1ncnc3c(C(=O)NC4CCN(C(=O)CC)CC4)c[nH]c13)OCO2 [Example 133, 4-(5-Ethoxy-benzo[1,3]dioxol-4-yl)-5H-pyrrolo[3,2-d]pyrimidine-7-carboxylic acid (1-propionyl-piperidin-4-yl)-amide]	–
617	COc1cc(OCC2CC2)c(-c2ncnc3c(C(=O)NC4CCN(C(=O)[C@H](C)O)CC4)c[nH]c23)cc1F [Example 237, 4-(2-Cyclopropylmethoxy-5-fluoro-4-methoxy-phenyl)-5H-pyrrolo[3,2-d]pyrimidine-7-carboxylic acid [1-((S)-2-hydroxy-propanoyl)piperidin-4-yl]-amide]	–
479	COc1ccc(-c2ncnc3c(C(=O)N[C@H]4CC[C@H](NC(=O)[C@H](C)O)CC4)c[nH]c23)c(OCC2CC2)c1 [Example 200, trans-4-(2-Cyclopropylmethoxy-4-methoxy-phenyl)-5H-pyrrolo[3,2-d]pyrimidine-7-carboxylic acid [4-((S)-2-hydroxy-propionylamino)-cyclohexyl]-amide]	–
447	O=CN1CCC(CNC(=O)c2c[nH]c3c(-c4c(OCC5CC5)ccc5c4OCO5)ncnc23)CC1 [Example 23, 4-(5-Cyclopropylmethoxy-benzo[1,3]dioxol-4-yl)-5H-pyrrolo[3,2-d]pyrimidine-7-carboxylic acid (1-formyl-piperidin-4-ylmethyl)-amide]	–
437	COc1ccc(OCC2CC2)c(-c2ncnc3c(C(=O)NC4CCN(C(=O)C5CC5)CC4)c[nH]c23)c1 [Example 72, 4-(2-Cyclopropylmethoxy-5-methoxy-phenyl)-5H-pyrrolo[3,2-d]pyrimidine-7-carboxylic acid (1-cyclopropanecarbonyl-piperidin-4-yl)-amide]	–
302	CC(=O)N1CCC(CNC(=O)c2c[nH]c3c(-c4c(OCC5CC5)ccc5c4OCO5)ncnc23)CC1 [Example 24, 4-(5-Cyclopropylmethoxy-benzo[1,3]dioxol-4-yl)-5H-pyrrolo[3,2-d]pyrimidine-7-carboxylic acid (1-acetyl-piperidin-4-ylmethyl)-amide]	–
295	CCOC(=O)N1CCC(NC(=O)c2c[nH]c3c(-c4c(OCC5CCC5)ccc5c4OCO5)ncnc23)CC1 [Example 132, 4-({1-[4-(5-Cyclobutylmethoxy-benzo[1,3]dioxol-4-yl)-5H-pyrrolo[3,2-d]pyrimidin-7-yl]-methanoyl}-amino)-piperidine-1-carboxylic acid ethyl ester]	–
123	O=C(N[C@H]1CC[C@H](NC(=O)C2(O)CC2)CC1)c1c[nH]c2c(-c3c(OCC4CC4)ccc4c3OCO4)ncnc12 [Example 177, trans-4-(5-Cyclopropylmethoxy-benzo[1,3]dioxol-4-yl)-5H-pyrrolo[3,2-d]pyrimidine-7-carboxylic acid {4-[(1-hydroxy-cyclopropanecarbonyl)-amino]-cyclohexyl}-amide]	–
112	O=C(CO)N[C@H]1CC[C@H](NC(=O)c2c[nH]c3c(-c4c(OCC5CC5)ccc5c4OCO5)ncnc23)CC1 [Example 172]	–
